Here are results for eight molecules from ChEMBL document CHEMBL1201862, “PubChem BioAssay data set” (2004).

In general, IC50 refers to the point on the concentration scale where inhibition reaches its midpoint. By EC50 is commonly meant the concentration giving half of the maximal effect.

Experiment [1] has as its target DNA dC->dU-editing enzyme APOBEC-3A (Homo sapiens, UniProt P31941). Briefly: Dose Response confirmation of small molecule APOBEC3A DNA Deaminase Inhibitors via a fluorescence-based single-stranded DNA deaminase assay. [Related pubchem assays (depositor defined):AID493011, AID493024]. Format: functional.
For another experiment, the target named is T1, Protein skinhead-1 (Caenorhabditis elegans, UniProt P34707).
T1 sequence (P34707 whole entry): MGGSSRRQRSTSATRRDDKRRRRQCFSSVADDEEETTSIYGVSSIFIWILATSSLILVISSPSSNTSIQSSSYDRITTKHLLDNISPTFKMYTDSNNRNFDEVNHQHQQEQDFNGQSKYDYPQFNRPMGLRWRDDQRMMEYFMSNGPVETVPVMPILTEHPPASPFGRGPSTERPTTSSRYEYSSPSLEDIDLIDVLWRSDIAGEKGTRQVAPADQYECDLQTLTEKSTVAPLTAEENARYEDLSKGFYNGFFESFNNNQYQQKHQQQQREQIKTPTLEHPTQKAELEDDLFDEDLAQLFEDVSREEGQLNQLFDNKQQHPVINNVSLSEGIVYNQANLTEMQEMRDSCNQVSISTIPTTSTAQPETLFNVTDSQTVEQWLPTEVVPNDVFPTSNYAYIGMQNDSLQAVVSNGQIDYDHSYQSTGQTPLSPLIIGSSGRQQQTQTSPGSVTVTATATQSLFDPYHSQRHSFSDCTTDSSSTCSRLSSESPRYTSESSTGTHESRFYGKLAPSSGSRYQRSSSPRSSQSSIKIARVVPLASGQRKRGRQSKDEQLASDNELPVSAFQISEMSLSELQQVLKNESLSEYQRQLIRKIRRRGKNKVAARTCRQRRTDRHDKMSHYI
The format is functional.

Experiment [2] has as its target DNA dC->dU-editing enzyme APOBEC-3G (Homo sapiens, UniProt Q9HC16). Format: functional.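 Note: Dose-response counterscreen measuring inhibition of APOBEC3G DNA deaminase activity, run while confirming APOBEC3A inhibitors.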
A short description of another experiment: cells. The format is functional.
In experiment [3] the target is Peroxisome proliferator-activated receptor gamma/Nuclear receptor coactivator 1 (Homo sapiens, UniProt P37231). As to the kind of experiment: TR-FRET dose response biochemical High Throughput Screening assay for agonists of the steroid receptor coactivator 1 (SRC-1) recruitment by the peroxisome proliferator-activated receptor gamma (PPAR gamma): non-selective agonists. [Related pubchem assays (depositor defined):AID1300, AID1808, AID504735, AID631]. The format is protein assay. (In general: In TR-FRET formats the signal depends on donor and acceptor labels being close together.)

The target of experiment [4] is Peroxisome proliferator-activated receptor gamma/Nuclear receptor coactivator 3 (Homo sapiens, UniProt P37231). Briefly: TR-FRET dose response biochemical High Throughput Screening assay for agonists of the steroid receptor coactivator 3 (SRC-3) recruitment by the peroxisome proliferator-activated receptor gamma (PPAR gamma): non-selective agonists. [Related pubchem assays: 1301 (Confirmation screen.), 1048 (Primary screen.)]. Format: functional.

Experiment [5] addresses Peroxisome proliferator-activated receptor gamma/Nuclear receptor coactivator 2 (Homo sapiens, UniProt P37231). As to the kind of experiment: TR-FRET dose response biochemical High Throughput Screening assay for agonists of the steroid receptor coactivator 2 (SRC-2) recruitment by the peroxisome proliferator-activated receptor gamma (PPAR gamma): non-selective agonists. [Related pubchem assays: 1297, 1032 ]. The format is functional.

The target of experiment [6] is T2, Short transient receptor potential channel 4 (Mus musculus, UniProt Q9QUQ5).
T2 sequence (Q9QUQ5 whole entry): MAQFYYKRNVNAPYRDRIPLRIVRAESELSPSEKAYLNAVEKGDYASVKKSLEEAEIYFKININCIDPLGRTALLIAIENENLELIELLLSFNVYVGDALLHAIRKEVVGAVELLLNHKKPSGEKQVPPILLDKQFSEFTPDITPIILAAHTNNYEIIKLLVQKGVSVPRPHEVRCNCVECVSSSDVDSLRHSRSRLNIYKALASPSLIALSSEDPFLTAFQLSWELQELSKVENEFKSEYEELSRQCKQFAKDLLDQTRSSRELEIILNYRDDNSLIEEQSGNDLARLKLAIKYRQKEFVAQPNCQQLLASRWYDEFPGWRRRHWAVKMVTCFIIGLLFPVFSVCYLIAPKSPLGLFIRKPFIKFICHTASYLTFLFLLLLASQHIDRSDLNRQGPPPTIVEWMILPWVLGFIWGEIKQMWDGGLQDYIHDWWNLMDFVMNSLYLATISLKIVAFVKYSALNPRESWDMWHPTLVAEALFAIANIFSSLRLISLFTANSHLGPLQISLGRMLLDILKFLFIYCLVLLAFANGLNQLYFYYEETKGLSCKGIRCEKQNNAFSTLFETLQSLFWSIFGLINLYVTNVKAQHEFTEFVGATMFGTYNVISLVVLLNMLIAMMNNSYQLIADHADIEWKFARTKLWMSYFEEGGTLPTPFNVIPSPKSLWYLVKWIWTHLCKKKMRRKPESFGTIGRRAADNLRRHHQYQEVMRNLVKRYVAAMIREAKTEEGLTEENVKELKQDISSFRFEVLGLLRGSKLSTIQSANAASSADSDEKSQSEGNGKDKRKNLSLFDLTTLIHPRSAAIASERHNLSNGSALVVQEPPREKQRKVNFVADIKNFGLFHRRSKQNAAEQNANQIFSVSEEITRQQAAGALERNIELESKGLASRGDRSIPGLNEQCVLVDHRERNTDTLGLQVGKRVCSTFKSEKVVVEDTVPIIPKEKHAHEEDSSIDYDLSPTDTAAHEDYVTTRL
Briefly: block of DAMGO-driven TRPC4 calcium entry – cell-based, HEK293 TRPC4/mu-opioid, Fluo-4 calcium, dose response (AID 434942).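 Note: potency of inhibitors blocking the TRPC4 calcium response.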 The format is functional.

The next experiment deals with Prothrombin (Homo sapiens, UniProt P00734). Briefly: Thrombin 1536 HTS Dose Response Confirmation. [Related pubchem assays: 1046 (Thrombin 1536 HTS; hits were confirmed in this assay)]. The format is functional.

Active and inactive are the calls of the source.

Chain of Peroxisome proliferator-activated receptor gamma/Nuclear receptor coactivator 2 (P37231 whole entry): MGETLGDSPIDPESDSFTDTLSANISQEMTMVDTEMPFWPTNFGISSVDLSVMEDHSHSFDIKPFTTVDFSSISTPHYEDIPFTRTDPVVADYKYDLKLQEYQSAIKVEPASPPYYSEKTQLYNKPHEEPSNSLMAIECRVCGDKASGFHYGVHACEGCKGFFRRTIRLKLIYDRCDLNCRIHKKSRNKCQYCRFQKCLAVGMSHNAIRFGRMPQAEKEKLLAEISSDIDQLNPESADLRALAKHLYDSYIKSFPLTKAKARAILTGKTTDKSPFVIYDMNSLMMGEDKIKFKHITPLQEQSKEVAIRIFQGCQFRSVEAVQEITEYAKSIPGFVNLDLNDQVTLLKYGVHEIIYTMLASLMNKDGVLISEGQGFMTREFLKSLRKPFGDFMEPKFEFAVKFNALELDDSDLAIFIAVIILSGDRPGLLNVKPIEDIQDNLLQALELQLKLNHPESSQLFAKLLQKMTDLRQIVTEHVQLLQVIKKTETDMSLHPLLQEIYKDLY
Chain of Peroxisome proliferator-activated receptor gamma/Nuclear receptor coactivator 2 (Q15596 whole entry, further chain): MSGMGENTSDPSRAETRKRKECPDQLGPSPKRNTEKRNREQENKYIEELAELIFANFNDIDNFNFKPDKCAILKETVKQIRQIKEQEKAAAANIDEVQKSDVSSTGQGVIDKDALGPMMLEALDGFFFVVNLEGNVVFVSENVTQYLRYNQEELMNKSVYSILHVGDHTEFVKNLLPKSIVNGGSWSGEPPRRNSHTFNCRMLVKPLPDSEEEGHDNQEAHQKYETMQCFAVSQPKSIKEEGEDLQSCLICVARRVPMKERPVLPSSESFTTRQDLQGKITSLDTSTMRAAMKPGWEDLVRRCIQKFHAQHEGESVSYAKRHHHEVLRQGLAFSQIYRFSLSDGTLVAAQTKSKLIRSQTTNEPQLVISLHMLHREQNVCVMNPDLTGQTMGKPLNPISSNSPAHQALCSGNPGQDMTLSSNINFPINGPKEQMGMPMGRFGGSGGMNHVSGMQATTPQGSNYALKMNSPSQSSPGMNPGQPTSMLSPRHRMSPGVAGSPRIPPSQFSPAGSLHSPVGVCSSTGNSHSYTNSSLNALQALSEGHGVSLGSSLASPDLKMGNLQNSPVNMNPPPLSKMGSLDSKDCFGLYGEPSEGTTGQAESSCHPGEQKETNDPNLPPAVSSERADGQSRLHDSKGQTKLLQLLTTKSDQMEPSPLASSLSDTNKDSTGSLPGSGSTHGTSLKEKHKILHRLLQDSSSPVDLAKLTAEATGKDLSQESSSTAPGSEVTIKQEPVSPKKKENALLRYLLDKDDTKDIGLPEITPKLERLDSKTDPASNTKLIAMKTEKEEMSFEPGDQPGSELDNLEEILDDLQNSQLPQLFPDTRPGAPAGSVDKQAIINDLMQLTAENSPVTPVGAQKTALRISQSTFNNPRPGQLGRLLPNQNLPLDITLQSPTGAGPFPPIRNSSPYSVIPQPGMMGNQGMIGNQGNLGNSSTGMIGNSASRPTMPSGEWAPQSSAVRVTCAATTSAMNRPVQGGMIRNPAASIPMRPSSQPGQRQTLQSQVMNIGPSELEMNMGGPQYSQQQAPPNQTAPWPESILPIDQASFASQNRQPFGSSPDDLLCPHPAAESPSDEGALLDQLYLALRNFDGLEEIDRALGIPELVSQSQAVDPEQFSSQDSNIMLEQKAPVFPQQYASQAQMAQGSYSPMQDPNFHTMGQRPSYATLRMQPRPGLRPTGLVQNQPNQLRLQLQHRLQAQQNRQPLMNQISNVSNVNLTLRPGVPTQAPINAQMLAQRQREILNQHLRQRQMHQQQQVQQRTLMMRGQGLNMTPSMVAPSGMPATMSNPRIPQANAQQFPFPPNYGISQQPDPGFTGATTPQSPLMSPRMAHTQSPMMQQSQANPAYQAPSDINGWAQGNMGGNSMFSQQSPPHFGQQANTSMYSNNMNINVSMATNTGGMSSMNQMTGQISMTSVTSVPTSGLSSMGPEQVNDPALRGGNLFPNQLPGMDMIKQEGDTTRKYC
Chain of Peroxisome proliferator-activated receptor gamma/Nuclear receptor coactivator 1 (P37231 whole entry): as the sequence (P37231 whole entry) above
Chain of Peroxisome proliferator-activated receptor gamma/Nuclear receptor coactivator 1 (Q15788 whole entry, further chain): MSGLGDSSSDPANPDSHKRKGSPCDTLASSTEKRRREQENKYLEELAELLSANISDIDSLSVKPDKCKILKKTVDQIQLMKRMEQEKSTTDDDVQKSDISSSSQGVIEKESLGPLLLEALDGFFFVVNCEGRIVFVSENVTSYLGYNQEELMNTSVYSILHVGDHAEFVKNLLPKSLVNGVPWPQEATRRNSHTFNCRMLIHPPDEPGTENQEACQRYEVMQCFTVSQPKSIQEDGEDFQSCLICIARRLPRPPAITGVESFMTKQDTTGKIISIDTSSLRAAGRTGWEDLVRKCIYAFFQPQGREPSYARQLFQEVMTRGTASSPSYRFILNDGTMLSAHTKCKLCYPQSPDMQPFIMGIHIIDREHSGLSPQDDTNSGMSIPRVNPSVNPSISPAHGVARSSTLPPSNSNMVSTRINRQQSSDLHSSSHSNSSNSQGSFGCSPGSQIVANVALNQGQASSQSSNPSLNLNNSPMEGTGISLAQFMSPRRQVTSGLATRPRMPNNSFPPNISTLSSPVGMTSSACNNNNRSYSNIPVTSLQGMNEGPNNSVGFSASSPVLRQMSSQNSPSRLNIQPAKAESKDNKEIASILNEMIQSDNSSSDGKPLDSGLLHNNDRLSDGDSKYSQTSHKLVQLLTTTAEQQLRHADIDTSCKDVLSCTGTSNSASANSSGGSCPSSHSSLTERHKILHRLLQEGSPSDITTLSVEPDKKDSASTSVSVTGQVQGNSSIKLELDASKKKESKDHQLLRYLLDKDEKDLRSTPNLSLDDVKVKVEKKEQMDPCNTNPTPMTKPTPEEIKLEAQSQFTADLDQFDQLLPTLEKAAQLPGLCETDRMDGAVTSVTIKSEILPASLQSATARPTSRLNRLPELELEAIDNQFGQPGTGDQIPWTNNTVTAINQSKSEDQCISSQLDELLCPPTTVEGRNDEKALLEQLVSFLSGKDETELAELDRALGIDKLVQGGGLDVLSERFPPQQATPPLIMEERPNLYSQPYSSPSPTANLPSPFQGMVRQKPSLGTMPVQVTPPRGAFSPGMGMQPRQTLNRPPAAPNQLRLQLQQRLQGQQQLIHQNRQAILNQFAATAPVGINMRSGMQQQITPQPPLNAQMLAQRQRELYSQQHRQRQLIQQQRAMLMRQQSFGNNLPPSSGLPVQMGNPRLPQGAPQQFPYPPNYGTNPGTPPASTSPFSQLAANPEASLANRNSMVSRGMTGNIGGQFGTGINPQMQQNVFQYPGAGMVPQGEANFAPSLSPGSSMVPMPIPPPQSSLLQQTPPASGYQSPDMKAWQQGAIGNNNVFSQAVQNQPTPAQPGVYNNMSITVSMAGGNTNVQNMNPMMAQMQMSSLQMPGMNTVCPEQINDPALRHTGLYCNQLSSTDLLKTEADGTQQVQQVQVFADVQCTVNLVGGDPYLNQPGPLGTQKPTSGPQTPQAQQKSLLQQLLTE
Chain of DNA dC->dU-editing enzyme APOBEC-3A (P31941 whole entry): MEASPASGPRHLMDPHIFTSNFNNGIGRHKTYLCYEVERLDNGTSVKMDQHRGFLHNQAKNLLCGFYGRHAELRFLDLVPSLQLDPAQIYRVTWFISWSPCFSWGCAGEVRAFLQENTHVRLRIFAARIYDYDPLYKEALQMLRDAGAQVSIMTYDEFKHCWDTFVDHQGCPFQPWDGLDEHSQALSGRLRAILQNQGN
Chain of DNA dC->dU-editing enzyme APOBEC-3G (Q9HC16 whole entry): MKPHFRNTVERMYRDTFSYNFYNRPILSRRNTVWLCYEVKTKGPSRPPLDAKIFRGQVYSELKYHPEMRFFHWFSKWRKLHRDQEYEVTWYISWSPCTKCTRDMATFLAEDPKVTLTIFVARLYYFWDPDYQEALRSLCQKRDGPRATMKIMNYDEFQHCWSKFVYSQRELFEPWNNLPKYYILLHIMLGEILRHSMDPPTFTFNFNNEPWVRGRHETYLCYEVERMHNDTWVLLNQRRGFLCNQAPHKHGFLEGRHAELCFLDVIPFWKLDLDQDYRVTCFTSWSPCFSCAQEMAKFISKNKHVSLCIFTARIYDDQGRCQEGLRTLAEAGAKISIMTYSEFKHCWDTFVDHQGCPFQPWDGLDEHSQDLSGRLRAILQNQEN

As to `O=[N+]([O-])c1ccc2nc(N3CCCC3)sc2c1`, the values for the concentration for half-maximal inhibition (IC50) (in [1]; on Protein skinhead-1; in experiment [2]) were 5.31 µM (active), 39.1 µM (active) and 4.86 µM (active), respectively.
Turning to `Sc1ncnc2sc(-c3ccccc3)cc12`, the IC50 in the experiment “cells” is 49.3 µM (active). Also, the figures for the EC50 in experiment [3], in experiment [4] and in experiment [5] were 8.82 µM (active), > 79.4 µM (not active) and 34.7 µM (not active), respectively.
Take `N#Cc1ccc(-c2ccc3c(c2)OCO3)nc1SCC(=O)OCc1ccccc1`: the EC50 in experiment [3] was 5.85 µM (active); in [4], 20.4 µM (not active); in experiment [5], 7.23 µM (active).
In the case of `CN(C)c1cc[n+](CC(=O)Nc2ccc(OC(F)F)cc2)cc1`, the concentration for half-maximal inhibition (IC50) is 2.44 µM (active) in experiment [1] and 4.21 µM (active) in [2].
Turning to `CSCCNCc1cn(-c2ccc(F)cc2F)nc1-c1ccccc1C`, the EC50 in experiment [6] was 5.96 µM (active).
For `N=c1n(CCO)c2ccccc2n1Cc1ccccc1`, the IC50 against Prothrombin is given as > 50 µM (not active). Besides, the EC50 in [6] was 5.31 µM (active).
As to `Cn1c(=O)cc(SCC(=O)N2CCC3(CC2)OCCO3)c2ccc(Cl)cc21`, the EC50 in experiment [3] is > 79.4 µM (inactive); in experiment [4], > 79.4 µM (not active); in experiment [5], > 79.4 µM (not active).
For the molecule `C[N+]1(C)CCN(c2ccccc2)CC1` [DIMETHYLPHENYLPIPERAZINIUM IODIDE], the IC50 is 1.93 µM (active) in [1] and 2.62 µM (active) in experiment [2].
